According to patent US11312781B2, “Antigen binding molecules that bind LIGHT” (Capella Bioscience Ltd., priority 2018, dated 2022):

Assays:
[1] = test system: CMV stimulated human PBMC; test: Human PBMC antigen specific (CMV) recall response in vitro, cytokines by Luminex; format: cell-based; conditions: CMV stimulation, 5 day incubation; for IFN gamma production from PBMC: FIG. 11B
Experimental: In order to test the efficacy of anti-LIGHT mAbs on stimulated PBMC a recall antigen CMV (cytomegalovirus) lysate was utilised to stimulate PBMC from human CMV-positive donors (ImmunXperts, Belgium). 200 000 cells per well in RPMI (Thermofisher cat. no. 11875) plus 10% FBS (GIBCO) was added to CMV lysate (Serion immunologics cat. no. BA109VS, final concentration 10 ug/ml) with test mAbs in a volume of 200 ul. After a 5 day incubation at 37C and 5% CO2 the media was recovered by centrifugation and assayed for cytokines by Luminex immunoassay (ThermoFisher).

[2] = test system: DSS-induced colitis in hu-NOG mice; test: DSS-induced acute colitis in humanized (hu-NOG) mice; format: in vivo, mouse (hu-NOG); conditions: i.p. days 0, 3, 6, 9, versus IgG control, FIG. 9
Experimental: The experiments were carried out with the NOD/Shi-scid/IL-2Rγnull immunodeficient mouse strain (NOG) engrafted with CD34+ hematopoietic stem cells isolated from human cord blood as described in Manfroi B et al. (Cancer Res. 2017; 77:1097-1107). The reconstitution of the human immune system in the mice occurred for at least 14 weeks, and hu-mice were used that had at least 25% human CD45+/total CD45 cells. Female hu-NOG mice were randomised into 3 groups (n=10) taking into account the humanization rate and the CD34+ cell donors. All animal studies described in this study have been reviewed and approved by the local ethic committee (CELEAG). Mice were allowed to acclimate to the experimental environment for 5 days prior to the beginning of the experiment. The DSS was administrated for 7 days, from day 2 to 8. The DSS (3%) was added to the drinking water (ad libitum) and freshly renewed every two days.
All treatments started before the DSS-induced colitis. 3B04 variant 16 (5 mg/kg) and the isotype control and anti-TNF (Humira) antibodies (10 mg/kg) were administrated i.p. on days 0, 3, 6, 9. The experiment was terminated on day 12. The following parameters were recorded daily for 12 days: body weight in grams (g); diarrhea and stool consistency; bleeding and mortality. The global clinical score was calculated as follows: […]

Row | Compound | IFN gamma production from PBMC [1] | Global clinical score [2] | IL-17 production from PBMC ([1]; FIG. 11A)
1 | Opdivo: anti-PD-1 antibody, positive control in the PBMC assay (10 ug/ml) [reference compound] | increased | – | –
2 | adalimumab [humira, reference compound] | – | significant drop in the global clinical score from days 9 to 11 | –
3 | C[C@@H]1CCN(C(=O)CC#N)C[C@@H]1N(C)c1ncnc2[nH]ccc12 [Tofacitinib, reference compound] | inhibited | – | inhibited
